# Reference: patent US20090042289A1, “Preservation of Cells” (University of Wales, Cardiff, priority 2000, published 2009)
# Tests used:
# in vitro = details: rat
# Source text: (§1) Data is expressed as a percentage of the number of viable cells (as determined by LDH activity) in the non-hydrolysed gelatin sandwich at each time point. Native Gel/cell slurry (-{acute over (◯)}-) wherein hepatocytes suspended in a gel of non-hydrolysed gelatin; Pre-adhered hepatocytes with Native gel blanket (-▪-) wherein hepatocytes allowed to adhere to the substratum before being blanketed by gel of non-hydrolysed gelatin; hydrolysed gelatin slurry (-x-) wherein hepatocytes suspended in a gel of non-hydrolysed gelatin hydrolysed at 95° C.; 75 bloom slurry (--) wherein hepatocytes suspended in a gel composed of 75 bloom gelatin (commercially available from Sigma); Pre-attached hepatocytes with Hydrolysed gel blanket (-◯-) wherein hepatocytes allowed to adhere to the substratum before being blanketed by a gel of hydrolysed gelatin.
# Source text for hepatocytes: as §1
structure (smiles),measurement,setting,value
OCC(O)CO [glycerol],"viability at 7 days, 0.5 M",in vitro,10%
same,cytotoxicity to hepatocytes during preservation,hepatocytes,cytotoxic
